Laboratory results reported in patent US10294202B2, “Pyrrolidinones as herbicides” (FMC Corporation, priority 2013, dated 2019).

Key:
rice = assay: Test C flooded paddy test; assay type: in vivo, Oryza sativa; details: Flood
Outline: (§1)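 Plants at the 2-leaf stage in pots flooded to 3 cm were treated by applying compound directly to the paddy water, with depth held throughout. After 13 to 15 days in a greenhouse, response was rated visually against controls on a 0 (no effect) to 100 (complete control) scale.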

galium = assay: Test C pre-/postemergence herbicide test; assay type: in vivo, Galium aparine; details: Preemergence; for Plant response rating (scale of 0 to 100), Galium: 250 g ai/ha
Outline: (§2)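 Herbicidal effect was judged by eye 13 to 15 days after treatment in the greenhouse, using a 0–100 scale against controls. Chemicals in a non-phytotoxic solvent with surfactant were sprayed onto planted loam/sand soil or onto plants 2 to 18 cm tall in a peat-based growing medium.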

blackgrass = assay: Test A postemergence herbicide test; assay type: in vivo, Alopecurus myosuroides
Outline: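 Blackgrass and galium grown in pots of loam soil–sand blend, treated postemergence at 2–10 cm height, one- to two-leaf stage. Plants kept in greenhouse ~10 days, then visually rated for injury against untreated controls on a 0–100 scale (0 no effect, 100 complete control).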

pigweed = assay: Test A pre-/postemergence herbicide test; assay type: in vivo, Amaranthus retroflexus
Outline: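 Both application timings used compounds in a non-phytotoxic solvent plus surfactant. Pre-emergence: soil sprayed directly after seeding into loam/sand. Post-emergence: foliage of 2–10 cm seedlings (1–2 leaves) sprayed. Injury rated ~10 days later, 0–100.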

morningglory = assay: Test C pre-/postemergence herbicide test; assay type: in vivo, Ipomoea coccinea
Outline: as §2

foxtail, giant = assay: Test C pre-/postemergence herbicide test; assay type: in vivo, Setaria faberii
Outline: as §2

oat, wild = assay: Test C pre-/postemergence herbicide test; assay type: in vivo, Avena fatua; details: Postemergence
Outline: as §2

barnyardgrass = assay: Test C flooded paddy test; assay type: in vivo, Echinochloa crus-galli; details: Flood
Outline: as §1

[1] = 31 g ai/ha, scale of 0 to 100 where 0 is no effect and 100 is complete control, 13 to 15 days
[2] = 62 g ai/ha, scale of 0 to 100 where 0 is no effect and 100 is complete control, 13 to 15 days
[3] = 125 g ai/ha, scale of 0 to 100 where 0 is no effect and 100 is complete control, 13 to 15 days
[4] = 31 g ai/ha, scale 0 to 100, 0 is no effect and 100 is complete control
[5] = 125 g ai/ha, scale 0 to 100 (0 no effect, 100 complete control)
[6] = 500 g ai/ha, 0 to 100 scale (0 no effect, 100 complete control)
[7] = Postemergence, 31 g ai/ha, scale 0 to 100 (0 no effect, 100 complete control)
[8] = Postemergence, 62 g ai/ha, scale 0 (no effect) to 100 (complete control)
[9] = Postemergence, 125 g ai/ha, scale 0 to 100 (0 no effect, 100 complete control)
[10] = Postemergence, 250 g ai/ha, scale 0 to 100 (0 no effect, 100 complete control)
[11] = Preemergence, 31 g ai/ha, scale 0 to 100, 0 is no effect and 100 is complete control
[12] = Preemergence, 62 g ai/ha, scale 0 to 100
[13] = Preemergence, 125 g ai/ha, scale 0 to 100 (0 no effect, 100 complete control)
[14] = 31 g ai/ha, scale 0 to 100 (0 no effect, 100 complete control)
[15] = 62 g ai/ha, scale 0 (no effect) to 100 (complete control)
[16] = 250 g ai/ha, scale 0 to 100 (0 no effect, 100 complete control)
[17] = 250 g ai/ha, scale of 0 to 100 where 0 is no effect and 100 is complete control, 13 to 15 days
[18] = 62 g ai/ha, scale 0 to 100 (0 no effect, 100 complete control)
[19] = 125 g ai/ha, visual rating on 0 to 100 scale (0 no effect, 100 complete control), approx. 10 days
[20] = Postemergence, 125 g ai/ha, visual rating on 0 to 100 scale (0 no effect, 100 complete control), approx. 10 days
[21] = Postemergence, 500 g ai/ha, 0 to 100 scale (0 no effect, 100 complete control)
[22] = Preemergence, 125 g ai/ha, 0 to 100 scale where 0 is no effect and 100 is complete control
[23] = Preemergence, 500 g ai/ha, visual rating on 0 to 100 scale (0 no effect, 100 complete control)
[24] = Preemergence, 62 g ai/ha, scale 0 to 100 (0 no effect, 100 complete control)
[25] = Preemergence, 125 g ai/ha, scale 0 to 100

In the case of O=C1NCC(c2ccc(F)cc2)C1C(=O)Nc1cccc(F)c1F (racemic) [Compound 119], the “Plant response rating, Rice” value (rice; [1]) is reported as 0, the “Plant response rating, Rice” value (rice; [2]) is reported as 0 and the “Plant response rating, Rice” value (rice; [3]) is reported as 10. For the same molecule, the “Plant response rating, Rice” value (rice; 250 g ai/ha, scale 0 to 100) was 20, the “Galium plant response rating” value (galium; [4]) was 80 and the “Plant response rating, Galium” value (galium; 62 g ai/ha, scale 0 to 100) was 80. For the same molecule, the “Plant response rating, Galium” value (galium; [5]) was 85, the “Plant response rating (scale of 0 to 100), Galium” value (galium) was 90 and the “Plant response rating, Blackgrass” value (blackgrass; 125 g ai/ha, 0 to 100 scale, 0 no effect, 100 complete control) was 30. For the same molecule, the “Plant response rating, Blackgrass” value (blackgrass; [6]) was 50, the “Plant response rating, Pigweed” value (pigweed; 125 g ai/ha, visual rating, 0 to 100 scale, 0 no effect, 100 complete control, approximately 10 days, preemergence) was 30 and the “Plant response rating, Pigweed” value (pigweed; Postemergence, 125 g ai/ha, 0 to 100 scale, 0 no effect, 100 complete control) was 30. For the same molecule, the “Pigweed plant response rating (0 to 100 scale, 0 is no effect, 100 is complete control)” value (pigweed; Postemergence, 500 g ai/ha) was 30, the “Plant response rating, Pigweed” value (pigweed; preemergence, 500 g ai/ha, 0 to 100 scale) was 40 and the “Plant response rating, Morningglory” value (morningglory; [7]) was 0. The “Plant response rating, Morningglory” value (morningglory; [8]) was 0, the “Plant response rating, Morningglory” value (morningglory; [9]) was 5 and the “Plant response rating, Morningglory” value (morningglory; [10]) was 5. The “Morningglory plant response rating” value (morningglory; [11]) was 0, the “Plant response rating, Morningglory” value (morningglory; [12]) was 0 and the “Plant response rating, Morningglory” value (morningglory; [13]) was 35. The “Plant response rating (scale of 0 to 100), Morningglory” value (morningglory; Preemergence, 250 g ai/ha) was 35, the “Plant response rating, Foxtail, Giant” value (foxtail, giant; [7]) was 10 and the “Plant response rating, Foxtail, Giant” value (foxtail, giant; [8]) was 25. The “Plant response rating, Foxtail, Giant” value (foxtail, giant; [9]) was 85, the “Plant response rating, Foxtail, Giant” value (foxtail, giant; [10]) was 90 and the “Foxtail, Giant plant response rating” value (foxtail, giant; [11]) was 90. For the same molecule, the “Plant response rating, Foxtail, Giant” value (foxtail, giant; [12]) was 90, the “Plant response rating, Foxtail, Giant” value (foxtail, giant; [13]) was 98 and the “Plant response rating (scale of 0 to 100), Foxtail, Giant” value (foxtail, giant; Preemergence, 250 g ai/ha) was 98. The “Plant response rating, Oat, Wild” value (oat, wild; [14]) was 0, the “Plant response rating, Oat, Wild” value (oat, wild; [15]) was 0 and the “Plant response rating, Oat, Wild” value (oat, wild; [5]) was 0. For the same molecule, the “Plant response rating, Oat, Wild” value (oat, wild; [16]) was 0, the “Plant response rating, Barnyardgrass” value (barnyardgrass; [1]) was 30 and the “Plant response rating, Barnyardgrass” value (barnyardgrass; [2]) was 50. For the same molecule, the “Plant response rating, Barnyardgrass” value (barnyardgrass; [3]) was 60 and the “Plant response rating, Barnyardgrass” value (barnyardgrass; 250 g ai/ha, scale 0 to 100) was 75.

For O=C1NCC(c2cccc(C(F)(F)F)c2)C1C(=O)Nc1ccccc1Cl (stereo not drawn) [Compound 312], the “Plant response rating, Rice” value (rice; [1]) was 0, the “Plant response rating, Rice” value (rice; [2]) was 0 and the “Plant response rating, Rice” value (rice; [3]) was 0. The “Plant response rating, Rice” value (rice; [17]) was 0, the “Galium plant response rating” value (galium; [4]) was 90 and the “Galium plant response rating” value (galium; [18]) was 0. For the same molecule, the “Plant response rating, Galium” value (galium; 125 g ai/ha, scale 0 to 100) was 5, the “Plant response rating (scale of 0 to 100), Galium” value (galium) was 80 and the “Plant response rating, Blackgrass” value (blackgrass; [19]) was 40. The “Plant response rating, Blackgrass” value (blackgrass; [6]) was 50, the “Plant response rating, Pigweed” value (pigweed; [20]) was 20 and the “Plant response rating, Pigweed” value (pigweed; [21]) was 30. The “Plant response rating, Pigweed” value (pigweed; [22]) was 0, the “Pigweed plant response rating” value (pigweed; [23]) was 20 and the “Plant response rating, Morningglory” value (morningglory; [7]) was 0. For the same molecule, the “Plant response rating, Morningglory” value (morningglory; [8]) was 0, the “Plant response rating, Morningglory” value (morningglory; [9]) was 10 and the “Plant response rating, Morningglory” value (morningglory; [10]) was 20. For the same molecule, the “Morningglory plant response rating” value (morningglory; [11]) was 0, the “Morningglory plant response rating” value (morningglory; [24]) was 35 and the “Plant response rating, Morningglory” value (morningglory; [25]) was 40. For the same molecule, the “Plant response rating (scale of 0 to 100), Morningglory” value (morningglory; Preemergence, 250 g ai/ha) was 55, the “Plant response rating, Foxtail, Giant” value (foxtail, giant; [7]) was 55 and the “Plant response rating, Foxtail, Giant” value (foxtail, giant; [8]) was 75. For the same molecule, the “Plant response rating, Foxtail, Giant” value (foxtail, giant; [9]) was 75, the “Plant response rating, Foxtail, Giant” value (foxtail, giant; [10]) was 80 and the “Foxtail, Giant plant response rating” value (foxtail, giant; [11]) was 90. For the same molecule, the “Foxtail, Giant plant response rating” value (foxtail, giant; [24]) was 90, the “Plant response rating, Foxtail, Giant” value (foxtail, giant; [25]) was 90 and the “Plant response rating (scale of 0 to 100), Foxtail, Giant” value (foxtail, giant; Preemergence, 250 g ai/ha) was 95. For the same molecule, the “Plant response rating, Oat, Wild” value (oat, wild; [14]) was 0, the “Plant response rating, Oat, Wild” value (oat, wild; [15]) was 0 and the “Plant response rating, Oat, Wild” value (oat, wild; [5]) was 0. The “Plant response rating, Oat, Wild” value (oat, wild; [16]) was 0, the “Plant response rating, Barnyardgrass” value (barnyardgrass; [1]) was 0 and the “Plant response rating, Barnyardgrass” value (barnyardgrass; [2]) was 0. The “Plant response rating, Barnyardgrass” value (barnyardgrass; [3]) was 30 and the “Plant response rating, Barnyardgrass” value (barnyardgrass; [17]) was 60.

In the case of Cc1cccc(NC(=O)C2C(=O)NCC2c2cccc(C(F)(F)F)c2)c1 (stereo not drawn) [Compound 317], the “Plant response rating, Rice” value (rice; [1]) is reported as 0, the “Plant response rating, Rice” value (rice; [2]) is reported as 0 and the “Plant response rating, Rice” value (rice; [3]) is reported as 0. The “Plant response rating, Rice” value (rice; [17]) was 0, the “Galium plant response rating” value (galium; [4]) was 0 and the “Galium plant response rating” value (galium; [18]) was 0. For the same molecule, the “Plant response rating, Galium” value (galium; 125 g ai/ha, scale 0 to 100) was 0, the “Plant response rating (scale of 0 to 100), Galium” value (galium) was 0 and the “Plant response rating, Blackgrass” value (blackgrass; [19]) was 0. The “Plant response rating, Blackgrass” value (blackgrass; [6]) was 20, the “Plant response rating, Pigweed” value (pigweed; [20]) was 0 and the “Plant response rating, Pigweed” value (pigweed; [21]) was 0. The “Plant response rating, Pigweed” value (pigweed; [22]) was 0, the “Pigweed plant response rating” value (pigweed; [23]) was 0 and the “Plant response rating, Morningglory” value (morningglory; [7]) was 0. For the same molecule, the “Plant response rating, Morningglory” value (morningglory; [8]) was 0, the “Plant response rating, Morningglory” value (morningglory; [9]) was 0 and the “Plant response rating, Morningglory” value (morningglory; [10]) was 10. The “Morningglory plant response rating” value (morningglory; [11]) was 25, the “Morningglory plant response rating” value (morningglory; [24]) was 0 and the “Plant response rating, Morningglory” value (morningglory; [25]) was 0. For the same molecule, the “Plant response rating (scale of 0 to 100), Morningglory” value (morningglory; Preemergence, 250 g ai/ha) was 0, the “Plant response rating, Foxtail, Giant” value (foxtail, giant; [7]) was 0 and the “Plant response rating, Foxtail, Giant” value (foxtail, giant; [8]) was 0. For the same molecule, the “Plant response rating, Foxtail, Giant” value (foxtail, giant; [9]) was 0, the “Plant response rating, Foxtail, Giant” value (foxtail, giant; [10]) was 50 and the “Foxtail, Giant plant response rating” value (foxtail, giant; [11]) was 80. For the same molecule, the “Foxtail, Giant plant response rating” value (foxtail, giant; [24]) was 90, the “Plant response rating, Foxtail, Giant” value (foxtail, giant; [25]) was 90 and the “Plant response rating (scale of 0 to 100), Foxtail, Giant” value (foxtail, giant; Preemergence, 250 g ai/ha) was 95. For the same molecule, the “Plant response rating, Oat, Wild” value (oat, wild; [14]) was 0, the “Plant response rating, Oat, Wild” value (oat, wild; [15]) was 0 and the “Plant response rating, Oat, Wild” value (oat, wild; [5]) was 0. The “Plant response rating, Oat, Wild” value (oat, wild; [16]) was 0, the “Plant response rating, Barnyardgrass” value (barnyardgrass; [1]) was 0 and the “Plant response rating, Barnyardgrass” value (barnyardgrass; [2]) was 0. The “Plant response rating, Barnyardgrass” value (barnyardgrass; [3]) was 30 and the “Plant response rating, Barnyardgrass” value (barnyardgrass; [17]) was 30.
